Holding throughout (format): in vivo
One data set relates to Ctenocephalides felis. The data set can be described thus: Ctenocephalides felis test (CTECFE). Particulars: Ctenocephalides felis, 48 h. The protocol:
(§1) Solvent: dimethyl sulfoxide
To produce a suitable preparation of active compound, 10 mg of active compound are dissolved in 0.5 ml solvent, and the concentrate is diluted with cattle blood to the desired concentration. Approximately 20 adult unfed (Ctenocepahlides felis) are placed in flea chambers. The blood chamber, sealed with parafilm on the bottom, are filled with cattle blood supplied with compound solution and placed on top of the flea chamber, so that the fleas are able to suck the blood. The blood chamber is heated to 37° C. whereas the flea chamber is kept at room temperature. After 2 days mortality in % is determined. 100% means that all the fleas have been killed; 0% means that none of the fleas have been killed.

In data set [1] the test system is Lucilia cuprina 1st instar larvae. The data set can be described thus: Lucilia cuprina (48 h). The protocol: Species: Lucilia cuprina 1st instar larvae (age 24 hrs)
as §1
10 mg active compound are dissolved in 0.5 ml dimethyl sulfoxide. Serial dilutions are made to obtain the desired rates. Approximately 20 Lucilia cuprina 1st instar larvae are transferred into a test tube containing 1 cm^3 of minced horse meat and 0.5 ml aqueous dilution of test compound. After 48 hrs percentage of larval mortality are recorded. 100% efficacy=all larvae are killed, […].

The subject of data set [2] is adult engorged female Boophilus microplus ticks. The data set can be described thus: Boophilus microplus (dip). The conditions noted are these: Rhipicephalus microplus, 168 h. The protocol:
Solvent: Dimethylsulfoxid
To produce a suitable preparation of active compound, 10 mg of active compound are dissolved in 0.5 ml solvent, and the concentrate is diluted with water to the desired concentration. Eight to ten adult engorged female Boophilus microplus ticks are placed in perforated plastic beakers and immersed in aqueous compound solution for one minute. Ticks are transferred to a filter paper in a plastic tray. Egg deposition of fertile eggs is monitored after. After 7 days mortality in % is determined. 100% means that all the ticks have been killed; 0% means that none of the ticks have been killed.

The test system of a further data set is Musca domestica. The data set can be described thus: Musca domestica test. The protocol:
as §1
To produce a suitable preparation of active compound, 10 mg of active compound are dissolved in 0.5 ml solvent, and the concentrate is diluted with water to the desired concentration. Prior to the assay, a piece of kitchen sponge is soaked with a mixture of sugar and compound solution and placed into a container. 10 adults (Musca domestica) are placed into the container and closed with a perforated lid. After 2 days mortality in % is determined. 100% means that all the flies have been killed; 0% means that none of the flies have been killed.

The test system of data set [3] is Two-Spotted Spider Mite (Tetranychus urticae). The data set can be described thus: Test against two-spotted spider mite (Tetranychus urticae), spray. The conditions noted are these: 100 ppm; sprayed on kidney bean; adult mites; after 7 days. The protocol:
(§2) Unless not mentioned otherwise, the test solutions were prepared as follows:
(§3) Containing as solvent: Dimethylformamide, 3 parts by weight; and as emulsifier: Polyoxyethylene alkyl phenyl ether, 1 part by weight. To prepare the test solution, 1 part by weight of an active compound is mixed with the above-mentioned amount of solvent containing the above-mentioned amount of emulsifier, and the mixture is diluted with water to the desired concentration.
50 to 100 adult two-spotted spider mites were inoculated onto the leaves of kidney beans at the two-true leaf stage, which plant had been cultivated in a pot having a diameter of 6 cm. After one day, test solution at the appropriate concentration was sprayed thereon in a sufficient amount using a spray gun. After the spraying, the plant pot was placed inside a greenhouse, and after 7 days, the acaricidal activity was calculated. An acaricidal activity of 100% means that all mites were killed, whereas an acaricidal activity of 0% means that no mite was killed.

Data set [4] concerns Tobacco Cutworm (Spodoptera litura) Larvae. The data set can be described thus: Test against tobacco cutworm larvae, systemic test by soil drench. Particulars: 250 ppm, 20 ml soil drench on potted broccoli, leaves cut after 7 days, third-instar larvae. The method, then:
as §2, §3
20 ml of the test solution at the appropriate concentration was treated on the soil surface of potted broccoli seedling at 2 to 3 leaf stage. After 7 days, the leaves were cut and placed in a petri dish having a diameter of 9 cm. And then ten third-instar larvae of tobacco cutworm were released therein. The petri dish was placed in a temperature-controlled room at 25° C. After 7 days, the number of dead larvae was counted to calculate the insecticidal activity. An insecticidal activity of 100% means that all larvae were killed, whereas an insecticidal activity of 0% means that no larva was killed. […] The comparative compound A is No. 1-72 in WO2009/097992.

Data set [5] shares this test system. The data set can be described thus: Test against tobacco cutworm larvae, root systemicity. The conditions noted are these: 100 ppm; broccoli seedling roots dipped 3 days; second-instar larvae; after 4 days. The protocol:
as §2, §3
The roots of seedling of broccoli at 1.2 leaf stage were dipped into the test solution at the appropriate concentration. After 3 days, the leaves were cut and placed in a petri dish having a diameter of 9 cm. And then five second-instar larvae of tobacco cutworm were released therein. The petri dish was placed in a temperature-controlled room at 25° C. After 4 days, the number of dead larvae was counted, to calculate the insecticidal activity. An insecticidal activity of 100% means that all larvae were killed, whereas an insecticidal activity of 0% means that no larva was killed.

The test system of data set [6] is Cucurbit Leaf Beetle (Aulacophora femoralis). The data set can be described thus: Test against cucurbit leaf beetle (Aulacophora femoralis), leaf immersion. Particulars: 100 ppm; cucumber leaves immersed; second-instar larvae; after 7 days. The protocol:
as §2, §3
Cucumber leaves were immersed in the test solution at the appropriate concentration, and the leaves were dried in air. The leaves were then placed in a plastic cup containing sterilized black soil, and five second-instar larvae of cucurbit leaf beetle were released therein. The plastic cup was placed in a temperature-controlled chamber at 25° C. After 7 days, the number of dead larvae was counted, and thus the insecticidal activity was calculated. An insecticidal activity of 100% means that all beetles were killed, whereas an insecticidal activity of 0% means that no beetle was killed.

Data set [7] concerns Rice Leafroller (Cnaphalocrocis medinalis) Larvae. The data set can be described thus: Test against rice leafroller larvae, seed treatment. Particulars: 8 g/1 kg dry seeds, leaves cut 28 days after seeding, third-instar larvae, after 7 days. The method, then: To prepare the test solution, 1 part by weight of an active compound is mixed with the 8 parts of acetone, and mix with 20 mg of micronized mineral. After that 1 g of dry rice seeds and 50 ul of water are added and mixed well and dried in the air. Sow treated seeds in the pot having a diameter of 12 cm. 28 days after seeding the leaves were cut and placed in a petri dish having a diameter of 9 cm. And then five third-instar larvae of rice leafroller were released therein. The petri dish was placed in a temperature-controlled room at 25° C. After 7 days, the number of dead larvae was counted to calculate the insecticidal activity. An insecticidal activity of 100% means that all larvae were killed, whereas an insecticidal activity of 0% means that no larva was killed. […] The comparative compound B is No. 1-79 in WO2009/097992.

For data set [8], the system named is Tobacco Cutworm (Spodoptera litura) Larvae. The data set can be described thus: Test against tobacco cutworm (Spodoptera litura) larvae, leaf immersion. The conditions noted are these: 100 ppm; sweet potato leaves immersed; third-instar larvae; after 7 days. The method, then: as §2, §3
The leaves of sweet potato were immersed in the test solution at the appropriate concentration, and the leaves were dried in air. The leaves were then placed in a petri dish having a diameter of 9 cm, and ten third-instar larvae of tobacco cutworm were released therein. The petri dish was placed in a temperature-controlled chamber at 25° C. After 2 days and 4 days sweet potato leaves were additionally added. After 7 days, the number of dead larvae was counted to calculate the insecticidal activity. An insecticidal activity of 100% means that all larvae were killed, whereas an insecticidal activity of 0% means that no larva was killed. In the current test, the results of two petri dishes for each partition were averaged.

Data set [9] concerns fall armyworm larvae (Spodoptera frugiperda). The data set can be described thus: Spodoptera frugiperda test, SPODFR spray application. Particulars: 100 g/ha; maize leaf sections sprayed; after 7 days. The text has this:
(§4) Solvent: 78.0 parts by weight acetone
(§5) • 1.5 parts by weight dimethylformamide Emulsifier: 0.5 parts by weight alkylarylpolyglycolether
To produce a suitable preparation of the active compound, 1 part by weight of active compound is mixed with the stated amount of solvent and emulsifier, and the concentrate is dilutes with emulsifier-containing water to the desired concentration. Maize (Zea mais) leaf sections are sprayed with a preparation of the active ingredient of the desired concentration. Once dry, the leaf sections are infested with fall armyworm larvae (Spodoptera frugiperda).
After 7 days mortality in % is determined. 100% means that all caterpillars have been killed and 0% means that none of the caterpillars have been killed.

Data set [10] has as its system green peach aphid (Myzus persicae). The data set can be described thus: Myzus test, oral (MYZUPE O). The conditions noted are these: 100 g/ha; aphids suck on preparation; after 5 days. The protocol: Solvent: 80 parts by weight acetone
To produce a suitable preparation of active compound, 1 part by weight of active compound ist mixed with the stated amount of solvent and emulsifier, and the concentrate is diluted with emulsifier-containing water to the desired concentration. Containers are infested with a mixed population of the green peach aphid (Myzus persicae), the aphids suck on a preparation of the active compound at the desired concentration.
After 5 days mortality in % is determined. 100% means that all aphids have been killed; 0% means that none of the aphids have been killed.

Data set [11] has as its system mustard beetle larvae (Phaedon cochleariae). The data set can be described thus: Phaedon cochleariae test, PHAECO spray application. The conditions noted are these: 100 g/ha; Chinese cabbage leaf-disks sprayed; after 7 days. The protocol: Solvent: 78.0 parts by weight of acetone
• 1.5 parts by weight of dimethylformamide Emulsifier: 0.5 parts by weight of alkylaryl polyglycolether
To produce a suitable preparation of active compound, 1 part by weight of active compound is mixed with the stated amount of solvent and emulsifier, and the concentrate is diluted with emulsifier-containing water to the desired concentration.
Chinese cabbage (Brassica pekinesis) leaf-disks are sprayed with a preparation of the active ingredient of the desired concentration. Once dry, the leaf disks are infested with mustard beetle larvae (Phaedon cochleariae).
After 7 days mortality in % is determined. 100% means that all beetle larvae have been killed and 0% means that none of the beetle larvae have been killed.

Data set [12] relates to two spotted spidermite (Tetranychus urticae), OP-resistant. The data set can be described thus: Tetranychus urticae test, OP-resistant (TETRUR spray application). Particulars: 100 g/ha; French beans sprayed; all stages; after 6 days. The method, then: as §4, §5
To produce a suitable preparation of active compound, 1 part by weight of active compound is mixed with the stated amount of solvent and emulsifier, and the concentrate is diluted with emulsifier-containing water to the desired concentration. French beans (Phaseolus vulgaris) which are heavily infested with all stages of the two spotted spidermite (Tetranychus urticae), are sprayed with a preparation of the active ingredient at the desired concentration.
After 6 days mortality in % is determined. 100% means that all spider mites have been killed and 0% means that none of the spider mites have been killed.

Consider four molecules from patent US8410141B2, “Insecticidal arylpyrrolines” (Bayer Cropscience AG, priority 2009, dated 2013).

On to `N#Cc1cc(C2=NCC(c3cc(Cl)nc(Cl)c3)(C(F)(F)F)C2)ccc1-n1cncn1` (stereo not shown) [1-1, 5-[3-(2,6-dichloropyridin-4-yl)-3-(trifluoromethyl)-3,4-dihydro-2H-pyrrol-5-yl]-2-(1H-1,2,4-triazol-1-yl)benzonitrile], for which the mortality at 100 ppm in the data set on Ctenocephalides felis was 100%; in data set [1] (Lucilia cuprina, 48 h, read-out: larval mortality), 100%; in [2] it was 100%; in the data set with Musca domestica (Musca domestica, 48 h), 100%. This molecule showed an acaricidal activity rate in data set [3] of 100%. Moreover, the insecticidal activity in [4], in data set [5], in data set [6], in [7] and in data set [8] was 100% each time.

`CN(C)c1c(Cl)cc(C2(C(F)(F)F)CN=C(c3ccc(-n4cncn4)c(C#N)c3)C2)cc1Cl` (stereo not shown) [1-3]: the mortality was found to be 83% in [9], 100% in data set [10], 100% in data set [11] and 100% in data set [12].

As for `N#Cc1cc(C2=NCC(c3cc(C(F)(F)F)nc(C(F)(F)F)c3)(C(F)(F)F)C2)ccc1-n1cncn1` (stereo not shown) [1-22], the acaricidal activity rate in data set [3] turned out to be 100%. In addition, the insecticidal activity in data set [4], in data set [5], in [6], in data set [7] and in data set [8] was 100% throughout.

`N#Cc1cc(C2=NCC(c3cc(Cl)c4c(c3)OC(F)(F)O4)(C(F)(F)F)C2)ccc1-n1cncn1` (stereo not shown) [1-25] showed a larval mortality in data set [1] (100 ppm, minced horse meat, after 48 hrs) of 90%. Moreover, in the data set with Musca domestica (100 ppm, sponge with sugar and compound solution, adults, after 2 days), the mortality came to 90%. In addition, the insecticidal activity in [5], in data set [6] and in [8] was 100% each time.

Usually mortality stands for the percentage killed.
